# Reference: paper PMC6256357 (Chemical Science, 2018)
# Biological target: sirtuin 2 (SIRT2) (Homo sapiens, UniProt Q8IXJ6)
# Assay: trypsin-coupled fluorescence-based deacetylase assay
# Type: biochemical
# Sequence of sirtuin 2 (SIRT2) (Q8IXJ6 2-389): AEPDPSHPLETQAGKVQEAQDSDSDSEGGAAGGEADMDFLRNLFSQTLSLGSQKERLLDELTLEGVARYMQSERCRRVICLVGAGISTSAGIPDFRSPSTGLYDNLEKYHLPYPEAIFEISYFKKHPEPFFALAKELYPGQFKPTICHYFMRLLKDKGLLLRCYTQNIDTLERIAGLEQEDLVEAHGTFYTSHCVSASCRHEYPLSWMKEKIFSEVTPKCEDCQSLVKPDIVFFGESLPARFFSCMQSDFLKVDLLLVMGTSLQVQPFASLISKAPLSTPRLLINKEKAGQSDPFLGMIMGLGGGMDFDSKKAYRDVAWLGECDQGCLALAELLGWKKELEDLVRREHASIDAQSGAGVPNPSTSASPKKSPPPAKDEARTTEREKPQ
structure (smiles),measurement,value
NC(=O)c1ccc[n+]([C@@H]2O[C@H](COP(=O)([O-])OP(=O)(O)OC[C@H]3O[C@@H](n4cnc5c(N)ncnc54)[C@H](O)[C@@H]3O)[C@@H](O)[C@H]2O)c1 [NAD^+],trypsin-coupled fluorescence-based deacetylase assay,in contrast to NAD^+ that could participate in SIRT2-catalyzed protein deacetylation
